Assay results taken from patent US5380825A (Sigma Chemical Company, priority 1991, dated 1995).
Converted amounts (≈) assume the structure as drawn.

Legend:
Assay type in all cases: binding
[1] = system: antisera to AZT, Rabbit 1 (immunized with AZT-3-V:BSA); test: FPIA comparison of tracers, antiserum of Rabbit 1 (Table 1); conditions: for Polarization Units (P × 1000): 1 pmole of tracer, antiserum at the given titer; for ED50 AZT: concentration of AZT giving 50% reduction in polarization of this tracer relative to 0 tube; for Titer [Ab]: dilution of antiserum required to obtain the given polarization units with 1 pmole of tracer
Protocol: (§1) The immunogen (1 mg in 1 ml) was emulsified with an equal volume of Freund's Complete Adjuvant and injected intradermally into each of two female albino rabbits. The process was repeated in two weeks. Two weeks later, monthly subcutaneous booster injections were begun with 0.5 mg in 0.5 ml of the immunogen and 0.5 ml of Freund's Incomplete Adjuvant per animal. The rabbits were bled biweekly by a marginal ear vein technique beginning six weeks after the primary immunization. The blood collected was refrigerated, allowing clots to form, and the supernatant (antiserum) retained. The antiserum from each rabbit was collected and stored, either at -20° C. without preservative, or at 4° C. after addition of sodium azide to a final concentration of 0.1%. The same schedule was followed for each immunogen. Rabbits immunized produced antibodies to AZT.
(§2) Fluorescence Polarization Immunoassay for AZT
(§3) An equal volume of precipitation reagent was added per microcentrifuge tube. The tubes were centrifuged at greater than 9,000×g for 1 minute.
(§4) (2) A 17.5 ul sample of each serum extract was brought to approximately pH 7-8 by the addition of buffer.
(§5) (4) After an appropriate incubation time, the polarization of each reaction mixture was determined using a polarization spectrofluorimeter.
(§6) As further illustration of the invention polyclonal antibodies were raised in two rabbits by immunization with the conjugate of Example 4 (AZT-3-V:BSA) as is more fully described in Example 45 and stored at 4° C. with 0.1% sodium azide. A number of tracers were then compared as to their performance in FPIA using the antisera raised from two rabbits.
(§7) ^(1) TITER was defined as the dilution of antiserum (i.e., [Ab])
(§8) required to obtain the given polarization units (P × 1000) with 1
(§9) required to give a 50% reduction in polarization relative to a control (0
(§10) tube) containing no unlabeled AZT.

[2] = system: antisera to AZT, Rabbit 2 (immunized with AZT-3-V:BSA); test: FPIA comparison of tracers, antiserum of Rabbit 2 (Table 1); conditions: for Polarization Units (P × 1000): 1 pmole of tracer, antiserum at the given titer; for ED50 AZT: concentration of AZT giving 50% reduction in polarization of this tracer relative to 0 tube; for Titer [Ab]: dilution of antiserum required to obtain the given polarization units with 1 pmole of tracer
Protocol: as §1, §2, §3, §4, §5, §6, §7, §8, §9, §10

AZT antibodies = test: Immunological activity / tracer performance in FPIA for AZT (qualitative); conditions: for inhibition in FPIA for AZT: inhibitor of polarization
Protocol: as §3, §4, §5

Molecule	Polarization Units (P × 1000) [1] [P × 1000]	ED50 AZT [1] [µg/mL]	Titer [Ab] [1]	Polarization Units (P × 1000) [2] [P × 1000]	ED50 AZT [2] [µg/mL]	Titer [Ab] [2]	immunological activity in FPIA for AZT (AZT antibodies; qualitative)	"cross-reactivity" relative to AZT in an AZT assay by FPIA (AZT antibodies; relative to AZT)	performance as tracer for determination of AZT by FPIA (AZT antibodies; qualitative)	inhibition in FPIA for AZT (AZT antibodies; qualitative)
Cc1cn([C@H]2C[C@H](N=[N+]=[N-])[C@@H](CO)O2)c(=O)n(CC(=O)NCCNC(=S)Nc2ccc3c(c2)C(=O)OC32c3ccc(O)cc3Oc3cc(O)ccc32)c1=O [Example 23, 5-[[2-(3'-azido-3'-deoxythymid-3-yl)-acetamido]-ethylthiocarbamyl]-fluorescein]	173	2.4 (≈ 3.17 µM)	53	164	1.4 (≈ 1.85 µM)	28	–	–	–	–
3-carbethoxy-3'-azido-3'-deoxythymidine [Example 21]	–	–	–	–	–	–	immunologically active	approximately 110%	–	–
Cc1cn([C@H]2C[C@H](N=[N+]=[N-])[C@@H](CO)O2)c(=O)n(CCCNC(=S)Nc2ccc3c(c2)C(=O)OC32c3ccc(O)cc3Oc3cc(O)ccc32)c1=O [Example 30, 5-[3-(3'-azido-3'-deoxythymid-3-yl)-propyl-thiocarbamyl]fluorescein]	159	> 4.0	80	170	4.0 (≈ 5.6 µM)	80	–	–	satisfactory tracer	–
Cc1cn([C@H]2C[C@H](N=[N+]=[N-])[C@@H](CO)O2)c(=O)n(CCCN)c1=O [Example 28, 3-(3-aminopropyl)-3'-azido-3'-deoxythymidine]	–	–	–	–	–	–	immunologically active	–	–	–
Cc1cn([C@H]2C[C@H](N=[N+]=[N-])[C@@H](CO)O2)c(=O)n(CCCNc2nc(Cl)nc(Nc3ccc4c(c3)C(=O)OC43c4ccc(O)cc4Oc4cc(O)ccc43)n2)c1=O [Example 34, 3-[3-[4-(Fluoresceinyl-5)-6-chloro-s-triazin-2-yl]-aminopropyl]-3'-azido-3'-deoxythymidine]	171	2.0 (≈ 2.55 µM)	500	168	4.0 (≈ 5.11 µM)	140	immunologically active	–	–	–
O=C(O)CCc1ccc(O)cc1 [HPPA, 3-(4-hydroxyphenyl)propionic acid, reference compound]	–	–	–	–	–	–	–	–	–	unlike 3-(4-hydroxyphenyl)propionic acid (HPPA), was an effective inhibitor of polarization
Cc1cn([C@H]2C[C@H](N=[N+]=[N-])[C@@H](CO)O2)c(=O)n(CCCC(=O)NCC(=O)N[C@@H](Cc2ccc(O)cc2)C(=O)O)c1=O [Example 18, N-[4-(3'-azido-3'-deoxythymid-3-yl)-butyryl]-glycyl-L-tyrosine]	–	–	–	–	–	–	immunologically active	–	–	–
Cc1cn([C@H]2C[C@H](N=[N+]=[N-])[C@@H](CO)O2)c(=O)n(CCNc2nc(Cl)nc(Nc3ccc4c(c3)C(=O)OC43c4ccc(O)cc4Oc4cc(O)ccc43)n2)c1=O [AZT--(CH2)n --NH:DTAF, n=2]	162	4.0 (≈ 5.2 µM)	250	156	> 8.0	125	–	–	–	–
Cc1cn([C@H]2C[C@H](N=[N+]=[N-])[C@@H](CO)O2)c(=O)n(CCCC(=O)NCCNC(=S)Nc2ccc3c(c2)C(=O)OC32c3ccc(O)cc3Oc3cc(O)ccc32)c1=O [Example 15, 5-[[4-(3'-azido-3'-deoxythymid-3-yl)-butyramido]-ethylthiocarbamyl]-fluorescein]	165	4.0 (≈ 5.1 µM)	200	184	4.0 (≈ 5.1 µM)	73	Immunological activity against AZT was confirmed	–	–	–
COC(=O)C(Cc1ccc(O)cc1)NC(=O)CCCn1c(=O)c(C)cn([C@H]2C[C@H](N=[N+]=[N-])[C@@H](CO)O2)c1=O (stereo partly shown) [Example 16, 2-[4-(3'-azido-3'-deoxythymid-3-yl)-butyramido]-3-(4-hydroxyphenyl)-propionic acid methyl ester]	–	–	–	–	–	–	immunologically active	–	–	–
Cc1cn([C@H]2C[C@H](N=[N+]=[N-])[C@@H](CO)O2)c(=O)n(CCNC(=O)CCc2ccc(O)cc2)c1=O [Example 33, 3-[2-[3-(4-hydroxyphenyl)-propionamido]-ethyl]-3'-azido-3'-deoxythymidine]	–	–	–	–	–	–	–	–	–	effective inhibitor of polarization
Cc1cn([C@H]2C[C@H](N=[N+]=[N-])[C@@H](CO)O2)c(=O)n(CCCC(=O)Nc2ccc3c(c2)C2(OC3=O)c3ccc(O)cc3Oc3cc(O)ccc32)c1=O [Example 14, 6-[4-(3'-azido-3'-deoxythymid-3-yl)-butyramido]-fluorescein]	167	0.6 (≈ 0.879 µM)	150	159	1.4 (≈ 2.05 µM)	74	–	–	–	–
COc1nc(NCCn2c(=O)c(C)cn([C@H]3C[C@H](N=[N+]=[N-])[C@@H](CO)O3)c2=O)nc(Nc2ccc3c(c2)C(=O)OC32c3ccc(O)cc3Oc3cc(O)ccc32)n1 [Example 17, 3-[2-[4-(Fluoresceinyl-5)-6-methoxy-s-triazin-2-yl]aminoethyl]-3'-azido-3'-deoxythymidine]	160	2.5 (≈ 3.27 µM)	190	179	4.9 (≈ 6.41 µM)	100	immunologically active	–	–	–
Cc1cn([C@H]2C[C@H](N=[N+]=[N-])[C@@H](CO)O2)c(=O)n(CCCCC(=O)NCCNC(=S)Nc2ccc3c(c2)C(=O)OC32c3ccc(O)cc3Oc3cc(O)ccc32)c1=O [Example 7, 5-[[5-(3'-azido-3'-deoxythymid-3-yl)-valeramido]-ethylthiocarbamyl]-fluorescein]	–	–	1	197	> 8.0	3	–	–	–	–
Cc1cn([C@H]2C[C@H](N=[N+]=[N-])[C@@H](CO)O2)c(=O)n(CC(=O)Nc2ccc3c(c2)C(=O)OC32c3ccc(O)cc3Oc3cc(O)ccc32)c1=O [Example 22, 5-[2-(3'-azido-3'-deoxythymid-3-yl)-acetamido]-fluorescein]	164	1.4 (≈ 2.14 µM)	150	150	2.0 (≈ 3.06 µM)	105	–	–	–	–
Cc1cn([C@H]2C[C@H](N=[N+]=[N-])[C@@H](CO)O2)c(=O)n(CCCN2C(=O)c3ccccc3C2=O)c1=O [Example 26, 3-(3-phthalimidopropyl)-3'-azido-3'-deoxythymidine]	–	–	–	–	–	–	immunologically active	–	–	–
Cc1cn([C@H]2C[C@H](N=[N+]=[N-])[C@@H](CO)O2)c(=O)n(CCCNC(=S)Nc2ccc3c(c2)C2(OC3=O)c3cc(I)c(O)c(I)c3Oc3c2cc(I)c(O)c3I)c1=O [Example 36, 6-[3-(3 '-amido-3'-deoxythymid-3-yl)-propyl-thiocarbamyl]-erythrosin]	–	–	–	–	–	–	immunologically active	–	–	–
Cc1cn([C@H]2C[C@H](N=[N+]=[N-])[C@@H](COC(=O)CCC(=O)NCCNC(=S)Nc3ccc4c(c3)C(=O)OC43c4ccc(O)cc4Oc4cc(O)ccc43)O2)c(=O)[nH]c1=O [Example 42]	–	–	–	–	–	–	Immunoactivity of this label was demonstrated	–	–	–
Cc1cn([C@H]2C[C@H](N=[N+]=[N-])[C@@H](CO)O2)c(=O)n(CC(=O)O)c1=O [Example 19, 3-carboxymethyl-3'-azido-3'-deoxythymidine]	–	–	–	–	–	–	immunological activity	–	–	–
